Measurements taken from publication PMC3877896, “New Dimeric Members of the Phomoxanthone Family: Phomolactonexanthones A, B and Deacetylphomoxanthone C Isolated from the Fungus Phomopsis sp” (Marine Drugs, 2013).

Columns and labels:
[1] = test system: Huh7 human liver cancer cell line; test: MTT cytotoxicity assay, Huh7; format: cell-based; settings: Huh-7, 48 h exposure, mean ± SD of three independent experiments
Protocol: (§1) These phomoxanthone compounds (1–8) were evaluated for their cyctotoxic activity in vitro against four human cancer cell lines including human breast MDA-MB-435, human colon HCT-116, human lung Calu-3 and human liver Huh7, compared with their effects on the immortalized human breast epithelial cell line MCF-10A by MTT assay using epirubicin (an anticancer drug used widely in the clinic) as positive control.
(§2) MDA-MB-435, HCT-116, Calu-3 and Huh7 were cultured in Dulbecco’s modification Eagle’s medium (DMEM, Invitrogen, Carlsbad, CA, USA) supplemented with 10% fetal bovine serum (FBS, Hyclone, Logan, UT, USA), 2 mM L-glutamine, 100 μg/mL streptomycin and 100 U/mL penicillin (Invitrogen, Carlsbad, CA, USA). MCF-10A cells were cultured in keratinocyte serum free medium (KSFM) supplemented with 0.1–0.2 ng/mL human recombinant epidermal growth factor and 20–30 μg/mL bovine pituitary extract (Invitrogen, Carlsbad, CA, USA). The cells were incubated at 37 °C in a humidified atmosphere with 5% CO2.
(§3) Cells were harvested during logarithmic growth phase and seeded in 96-well plates at a density of 1 × 10^4 cells/mL, and cultured at 37 °C in a humidified incubator (5% CO2) for 24 h, followed by exposure to various concentrations of compounds tested for 48 h. Subsequently 20 μL of MTT (Genview, Houston, TX, USA) solution (5 mg/mL) was added to each well and mixed, the cells were then incubated for an additional 4 h. Culture supernatant was removed using the micropipette, 150 μL of DMSO (Sangon Biotech, Shanghai, China) was added to each well to fully dissolve the MTT-formazan crystals. Cell growth inhibition was determined by measuring the absorbance (Abs) at λ = 570 nm using a microplate reader and calculated according to the following equation: Growth inhibition = (1 − OD of treated cells/OD of control cells) × 100%
(§4) The half maximal inhibitory concentrations (IC50) were obtained from linear regression analysis of the concentration-response curves plotted for each tested compound.

[2] = test system: HCT-116 human colon cancer cell line; test: MTT cytotoxicity assay, HCT-116; format: cell-based; settings: mean ± SD of three independent experiments
Protocol: as §1, §2, §3, §4

[3] = test system: MCF-10A immortalized human breast epithelial cell line; test: MTT cytotoxicity assay, MCF-10A; format: cell-based; settings: MCF-10A
Protocol: as §1, §2, §3, §4

[4] = MTT cytotoxicity assay, MCF-10A; format: cell-based, human; settings: human, MCF-10A cells, 48 h exposure, mean ± SD of three independent experiments
Protocol: as §1, §2, §3, §4

[5] = test system: four human cancer cell lines (MDA-MB-435, HCT-116, Calu-3, Huh7); test: MTT cytotoxicity assay, tested cancer cell lines taken together; format: cell-based; settings: for cytotoxic activities against tested cancer cell lines (in words): MDA-MB-435, HCT-116, Calu-3, Huh7
Protocol: as §1, §2, §3, §4

[6] = test system: MDA-MB-435 human breast cancer cell line; test: MTT cytotoxicity assay, MDA-MB-435; format: cell-based; settings: mean ± SD of three independent experiments
Protocol: as §1, §2, §3, §4

[7] = test system: Calu-3 human lung cancer cell line; test: MTT cytotoxicity assay, Calu-3; format: cell-based; settings: mean ± SD of three independent experiments
Protocol: as §1, §2, §3, §4

HCT-116 (colon tumor) = test system: HCT-116 (colon tumor); set-up: method as in PMID 11520215; settings: cited from earlier work
A549 (lung tumor) = test system: A549 (lung tumor); set-up: method as in PMID 11520215; settings: cited from earlier work
[8] = Homo sapiens, HCT-116, 48 h, 48 h exposure
[9] = Homo sapiens, MDA-MB-435, 48 h, 48 h exposure
[10] = Homo sapiens, Calu-3, 48 h, 48 h exposure
[11] = Homo sapiens, HCT-116, 48 h exposure
[12] = Homo sapiens, Calu-3, 48 h exposure

Compound	IC50 [1] [µM]	IC50 [2, 8] [µM]	cytotoxic effect on the immortalized human breast epithelial cell line (in words) [3]	IC50 at 48 h [4] [µM]	cytotoxic activities against tested cancer cell lines (in words) ([5]; MTT)	IC50 [6, 9] [µM]	IC50 [7, 10] [µM]	IC50 ([2]; 48 h exposure) [µM]	IC50 ([6]; 48 h exposure) [µM]	IC50 ([7]; 48 h exposure) [µM]	anticancer activities against MDA-MB-435, HCT-116 and Calu-3 (in words) ([5]; MTT, MDA-MB-435, HCT-116, Calu-3)	IC50 [2, 11] [µM]	IC50 [7, 12] [µM]	cytotoxic activity against HCT-116 compared with dicerandrol B (in words) (HCT-116 (colon tumor))	IC50 ([5]; Homo sapiens, summary statement of the abstract, cell lines not specified, read-out: IC50 against tested cancer cell lines) [µM]	cytotoxic activity against A549 compared with dicerandrol B (in words) (A549 (lung tumor))	IC50 ([6]; Homo sapiens, MDA-MB-435, 48 h exposure) [µM]	melting point [°C]
CC(=O)O[C@@H]1[C@H](C)CC(O)=C2C(=O)c3c(O)ccc(-c4ccc(O)c5c4O[C@@]4(CO)C(=C(O)C[C@@H](C)[C@H]4OC(C)=O)C5=O)c3O[C@@]21CO [Compound 3, Deacetylphomoxanthone C]	> 50	44.1 ± 3.29	no cytotoxic effect	> 50	weak/no cytotoxic activities	> 50	43.4 ± 2.09											
CC(=O)OC[C@]12Oc3ccc(-c4ccc(O)c5c4O[C@@]4(CO)C(=C(O)C[C@@H](C)[C@H]4OC(C)=O)C5=O)c(O)c3C(=O)C1=C(O)C[C@@H](C)[C@H]2OC(C)=O [Compound 8, penexanthone A]	42.8 ± 3.58	< 10	less marked cytotoxic effect	16.1 ± 1.57		< 10	< 10	6.92 ± 0.38	7.9 ± 0.58	6.44 ± 0.86								
CC(=O)OC[C@]12Oc3ccc(-c4ccc5c(c4O)C(=O)C4=C(O)C[C@@H](C)[C@@H](OC(C)=O)[C@@]4(CO)O5)c(O)c3C(=O)C1=C(O)C[C@@H](C)[C@H]2OC(C)=O [Compound 5, dicerandrol B]	30.4 ± 1.1		less marked cytotoxic effect	8.14 ± 1.27		< 10			8.65 ± 0.66									
CC(=O)OCC1(C2OC(=O)CC2C)CC(=O)c2c(O)ccc(-c3ccc4c(c3O)C(=O)C3=C(O)CC(C)C(OC(C)=O)C3(CO)O4)c2O1 (stereo not drawn) [Compound 1, Phomolactonexanthone A]	> 50	> 50	no cytotoxic effect	> 50	weak/no cytotoxic activities	> 50	43.5 ± 2.51											
CC(=O)OC[C@]12Oc3ccc(-c4ccc5c(c4O)C(=O)C4=C(O)C[C@@H](C)[C@@H](OC(C)=O)[C@@]4(COC(C)=O)O5)c(O)c3C(=O)C1=C(O)C[C@@H](C)[C@H]2OC(C)=O [Compound 6, dicerandrol C]	> 50	42.6 ± 2.9		33 ± 2.74		44.1 ± 2.45	36.5 ± 3.32				weak anticancer activities							
CC(=O)O[C@@H]1[C@H](C)CC(O)=C2C(=O)c3c(ccc(-c4ccc(O)c5c4O[C@@]4(CO)C(=C(O)C[C@@H](C)[C@H]4OC(C)=O)C5=O)c3O)O[C@@]21CO [Compound 7, deacetylphomoxanthone B]	29.2 ± 1.19	7.12 ± 0.7	no cytotoxic effect	> 50	excellent selective activities against HCT-116 and Calu-3 cell lines over other cancer cell lines	14.4 ± 1.18	4.14 ± 0.02											
COc1cccc2c1C(=O)c1c(O)c3c(c(O)c1C2=O)C[C@@](O)(C(=O)CO)C[C@@H]3O[C@H]1C[C@H](N)[C@@H](O)[C@H](C)O1 [epirubicin, reference compound]	0.96 ± 0.01			0.48 ± 0.08								0.48 ± 0.029	1.03 ± 0.1					
CC(=O)O[C@@H]1[C@H](C)CC(O)=C2C(=O)c3c(ccc(-c4ccc5c(c4O)C(=O)C4=C(O)C[C@@H](C)[C@@H](OC(C)=O)[C@@]4(CO)O5)c3O)O[C@@]21CO [Compound 4, dicerandrol A]	4.19 ± 0.08	2.64 ± 0.03	displayed cytotoxic effect	28.3 ± 3.57	significant cytotoxic activities	3.03 ± 0.12	1.76 ± 0.02							less cytotoxic activities than dicerandrol B	< 10	less cytotoxic activities than dicerandrol B		
CC(=O)OCC1(C2OC(=O)CC2C)CC(=O)c2c(ccc(-c3ccc4c(c3O)C(=O)C3=C(O)CC(C)C(OC(C)=O)C3(CO)O4)c2O)O1 (stereo not drawn) [Compound 2, Phomolactonexanthone B]	> 50		no cytotoxic effect	> 50	weak/no cytotoxic activities							> 50	> 50				> 50	101.6 to 102.4
